“And” between values parts separate entries of the source, which are not always exact repeats. Identical values can stand only once.
Experiments:
[1] = test system: S180 ascites; experiment: Screening for anti-tumor activity against S180 ascites (increase in life span); assay type: in vivo, female CFW Swiss mice; conditions: for %ILS: injected day 1; for 30-Day Survivors: survivors/mice in set
Procedure: The compounds were evaluated for anti-tumor activity against S180 ascites in female CFW Swiss mice by the following procedure: • CFW mice, averaging 20g, are immediately inspected and placed in newly prepared cages. On day zero the mice are inoculated with 0.2 ml. of a freshly prepared saline suspension (0.15 M NaCl) containing 1 x 10^7 tumor cells/ ml, or a total of 2 x 10^6 cells. This inoculum is freshly prepared using "transfer" mice which have been injected with tumor cells the previous week. This inoculum is the end-product of a series of steps which involves (1) the removal of the cells from the peritoneal cavity of the sacrificed transfer mouse, (2) alternate centrifugation- washing (2-3 times with cold saline) to remove occasional blood and other undesirable components, and finally (3) dilution (1:3) of the packed cell volume with saline (the final centrifugation being carried out at 1,000 rpm for 2 min.). A cell count is made on a 2,000-fold dilution of this 1:3 suspension by means of a Coulter Counter. A final dilution to 1 x 10^7 cells/ml. is made based on the averaged count. On day 1, solutions of the test compounds are prepared and the mice injected, with each mouse of a set of six being injected with the same test compound at the same dose level.
Also, on this day, two types of controls (6 mice/se are employed: (1) Normal (1 set): 0.5 ml. of the solvent medium used for the test compound, and (2) Positive control (1 set): a known anti-tumor agent (cis-(Pt(NH3)2Cl2] in saline at 8 mg./kg.), used to test the response of the biological system.
ILS values above 50% represent significant activity; those above 75% represent excellent activity.

[2] = Stability in aqueous solution with respect to reduction; assay type: physicochemical
[3] = Solubility in water; assay type: physicochemical
[4] = C. Dragulescu et al, Int. Coord. Chem. Conf. XVI 1,99 (1974); cited from earlier work
[5] = positive control in saline at 8 mg./kg., run alongside each test compound

| Molecule | Control 30-Day Survivors [1, 5] | Control %ILS [1, 5] | %ILS ([1]; dose 5 mg/kg) | 30-Day Survivors ([1]; dose 5 mg/kg) | %ILS ([1]; dose 10 mg/kg) | 30-Day Survivors ([1]; dose 10 mg/kg) | %ILS ([1]; dose 20 mg/kg) | 30-Day Survivors ([1]; dose 20 mg/kg) | %ILS ([1]; dose 40 mg/kg) | 30-Day Survivors ([1]; dose 40 mg/kg) | %ILS ([1]; dose 80 mg/kg) | 30-Day Survivors ([1]; dose 80 mg/kg) | %ILS ([1]; dose 160 mg/kg) | 30-Day Survivors ([1]; dose 160 mg/kg) | stable, at least with respect to reduction, in solution [2] | soluble in water [3] | %ILS ([1]; dose 320 mg/kg) | 30-Day Survivors ([1]; dose 320 mg/kg) | antitumor activity in mice [4] |
| --- | --- | --- | --- | --- | --- | --- | --- | --- | --- | --- | --- | --- | --- | --- | --- | --- | --- | --- | --- |
| N.N.[Cl][Pt][Cl] [Control, cis-diamminedichloroplatinum(II), reference compound] | 3/6 and 4/5 | 80% and 96% |  |  |  |  |  |  |  |  |  |  |  |  |  |  |  |  |  |
| Cl.Cn1c(=O)c2c(ncn2CCCl)n(C)c1=O.Cn1c(=O)c2c(ncn2CCCl)n(C)c1=O.[Cl][Au]([Cl])[Cl] [Example 1, [AuCl3(7-chloroethyl-theophylline)](7-chloro-ethyltheophylline)·HCl] |  |  | 8% | 0/6 | -3% | 0/6 | 14% | 0/6 | 9% | 0/6 | 79% | 3/6 | 3% | 1/6 | ca. 24 hours | at least 64 mg/5 ml |  |  |  |
| Cl.Cn1c(=O)c2c(ncn2CC(O)CO)n(C)c1=O.Cn1c(=O)c2c(ncn2CC(O)CO)n(C)c1=O.[Cl][Au]([Cl])[Cl] (stereo not shown) [Example 2, [AuCl3(7-(2,3-dihydroxy-propyl)theophylline)] (7-(2,3-dihydroxypropyl)theophylline)·HCl] |  |  |  |  | -13% | 0/6 | -11% | 0/6 | -3% | 0/6 | 69% | 2/6 | 34% | 1/6 | ca. 24 hours | at least 64 mg/5 ml | -62% | 0/6 |  |
| [Au(III)(5-diazauracil)2Cl2]Cl |  |  |  |  |  |  |  |  |  |  |  |  |  |  |  |  |  |  | possess antitumor activity |
